Here are results for 19 molecules from patent US11793815B2, “Oxindoles and methods of use thereof” (ALIGOS THERAPEUTICS, INC., priority 2020, dated 2023).

Structures are written as SMILES. Bounds are passed on as bounds.

As usually defined, the EC50 is the concentration at which the effect is half-maximal.

For this assay, the target named is T1, human thyroid receptor beta ligand-binding domain (LBD) (Homo sapiens, UniProt P10828).
T1 construct: Thyroid receptor beta LBD was added to the plate at a final concentration of 1 nM; purchased Invitrogen
T1 sequence (P10828 217-461 limits assumed): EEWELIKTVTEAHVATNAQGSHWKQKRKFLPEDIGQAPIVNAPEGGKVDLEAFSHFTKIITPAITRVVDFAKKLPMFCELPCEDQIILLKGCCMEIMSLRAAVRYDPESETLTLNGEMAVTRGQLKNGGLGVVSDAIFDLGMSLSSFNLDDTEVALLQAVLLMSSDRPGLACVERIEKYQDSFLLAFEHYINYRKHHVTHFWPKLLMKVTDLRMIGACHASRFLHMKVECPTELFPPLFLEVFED
The assay is described as follows: THR Biochemical Assay (Assay 1): TR-FRET thyroid receptor beta coactivator assay. The note with it: GST-tagged thyroid receptor beta LBD 1 nM, fluorescein SRC2-2 coactivator peptide 200 nM, 1 hr at rt, TR-FRET ratio 520:495; read-out: Assay 1 (EC50, THR-beta agonist). The text has this:
THR Biochemical Assay (Assay 1)
The TR-FRET thyroid receptor beta coactivator assay was used with slight, optimized modifications of the manufacturer's protocol (Invitrogen). The assay uses a terbium-labeled anti-GST antibody, a glutathione-S-transferase (GST) tagged human thyroid receptor, beta or alpha, ligand-binding domain (LBD), and a fluorescein labeled SRC2-2 coactivator peptide. The antibody interacts with the LBD, where the agonist also binds, resulting in increased affinity for the SRC2-2 coactivator peptide causing energy transfer […] the acceptor fluorophore and a FRET emission shift from 495 to 520 nm. The energy transfer was detected as an increase in the fluorescence emission of the fluorescein acceptor, and a decrease in the fluorescence emission of the terbium donor. The assay was performed in a 384-well black plate in a final volume of 20 μL. Serial dilution of various test agonists was performed in DMSO (1% final DMSO concentration) and added to the test plate. Thyroid receptor beta LBD was added to the plate at a final concentration of 1 nM, followed by the mixture of the fluorescein labeled SRC2-2 coactivator peptide, and the terbium-labeled anti-GST antibody at final concentrations of 200 nM and 2 nM respectively. The assay was incubated for 1 hr at rt protected from light. The TR-FRET was then measured on a Victor multilabel reader (Perkin Elmer) using an excitation wavelength of 340 nm with emission filters of 495 nm and 520 nm. The assay was quantified by expressing a ratio (520:495) of the intensities, and the resulting activation curves; EC50 values were generated using a sigmoidal dose response (variable slope) equation in GraphPad™ Prism 8.0.
(In general: In TR-FRET formats the signal depends on donor and acceptor labels being close together.)
Regarding `Cc1cc(-n2nc(N)c(=O)[nH]c2=O)cc(C)c1Oc1ccc2c(c1)C1(CCC1)C(=O)N2` [Compound 24, 6-amino-2-(3,5-dimethyl-4-((2′-oxospiro[cyclobutane-1,3′-indolin]-5′-yl)oxy)phenyl)-1,2,4-triazine-3,5(2H,4H)-dione], the EC50 was under 50 nM. `Cc1cc(NC(=O)c2noc(=O)[nH]2)cc(C)c1Oc1ccc2c(c1)C1(CCC1)C(=O)N2` [Compound 25, N-(3,5-dimethyl-4-((2′-oxospiro[cyclobutane-1,3′-indolin]-5′-yl)oxy)phenyl)-5-oxo-4,5-dihydro-1,2,4-oxadiazole-3-carboxamide]: the EC50 is under 50 nM. Next, `CN1C(=O)C2(CC2)c2cc(Oc3c(Cl)cc(-n4nc(N)c(=O)[nH]c4=O)cc3Cl)ccc21` [Compound 26, 6-amino-2-(3,5-dichloro-4-((1′-methyl-2′-oxospiro[cyclopropane-1,3′-indolin]-5′-yl)oxy)phenyl)-1,2,4-triazine-3,5(2H,4H)-dione]: over 25000 nM. To `Cc1cc(Oc2c(Cl)cc(-n3nc(N)c(=O)[nH]c3=O)cc2Cl)cc2c1NC(=O)C21CCC1` [Compound 27, 6-amino-2-(3,5-dichloro-4-((7′-methyl-2′-oxospiro[cyclobutane-1,3′-indolin]-5′-yl)oxy)phenyl)-1,2,4-triazine-3,5(2H,4H)-dione] belongs under 50 nM; to `Cc1cc(-n2nc(N)c(=O)[nH]c2=O)cc(C)c1Oc1ccc2c(c1)C1(CCCC1)C(=O)N2` [Compound 28, 6-amino-2-(3,5-dimethyl-4-((2′-oxospiro[cyclopentane-1,3′-indolin]-5′-yl)oxy)phenyl)-1,2,4-triazine-3,5(2H,4H)-dione], under 50 nM; to `O=C(Nc1cc(Cl)c(Oc2ccc3c(c2Cl)C2(CC2)C(=O)N3)c(Cl)c1)c1noc(=O)[nH]1` [Compound 29, N-(3,5-dichloro-4-((4′-chloro-2′-oxospiro[cyclopropane-1,3′-indolin]-5′-yl)oxy)phenyl)-5-oxo-4,5-dihydro-1,2,4-oxadiazole-3-carboxamide], under 50 nM. To `Nc1nn(-c2cc(Cl)c(Oc3ccc4c(c3Cl)C3(CC3)C(=O)N4)c(Cl)c2)c(=O)[nH]c1=O` [Compound 30, 6-amino-2-(3,5-dichloro-4-((4′-chloro-2′-oxospiro[cyclopropane-1,3′-indolin]-5′-yl)oxy)phenyl)-1,2,4-triazine-3,5(2H,4H)-dione] belongs under 50 nM; to `O=C1Nc2ccc(Oc3c(Cl)cc(-n4ncc(=O)[nH]c4=O)cc3Cl)c(Cl)c2C12CC2` [Compound 31, 2-(3,5-dichloro-4-((4′-chloro-2′-oxospiro[cyclopropane-1,3′-indolin]-5′-yl)oxy)phenyl)-1,2,4-triazine-3,5(2H,4H)-dione], under 50 nM; to `CC1CC12C(=O)Nc1ccc(Oc3c(Cl)cc(-n4nc(N)c(=O)[nH]c4=O)cc3Cl)cc12` (stereo not shown) [Compound 33, 6-amino-2-(3,5-dichloro-4-((2-methyl-2′-oxospiro[cyclopropane-1,3′-indolin]-5′-yl)oxy)phenyl)-1,2,4-triazine-3,5(2H,4H)-dione], under 50 nM.

With `O=C(O)C(=O)Nc1cc(Cl)c(Oc2ccc3c(c2)C(F)(F)C(=O)N3)c(Cl)c1` [Compound 36, 2-((3,5-dichloro-4-((3,3-difluoro-2-oxoindolin-5-yl)oxy)phenyl)amino)-2-oxoacetic acid], the EC50 was under 50 nM. Turning to `Cc1c(Oc2c(Cl)cc(-c3nn(C)c(=O)[nH]c3=O)cc2Cl)ccc2c1C1(CC1)C(=O)N2` [Compound 37, 6-(3,5-dichloro-4-((4′-methyl-2′-oxospiro[cyclopropane-1,3′-indolin]-5′-yl)oxy)phenyl)-2-methyl-1,2,4-triazine-3,5(2H,4H)-dione], the concentration for a half-maximal effect (EC50) was under 50 nM. As to `Cc1c(Oc2c(Cl)cc(-n3nc(N)c(=O)[nH]c3=O)cc2Cl)ccc2c1C1(CC1)C(=O)N2` [Compound 38, 6-amino-2-(3,5-dichloro-4-((4′-methyl-2′-oxospiro[cyclopropane-1,3′-indolin]-5′-yl)oxy)phenyl)-1,2,4-triazine-3,5(2H,4H)-dione], the EC50 was under 50 nM. Next, `Cc1cc(NC(=O)c2noc(=O)[nH]2)cc(C)c1Oc1ccc2c(c1)C1(CC1)C(=O)N2` [Compound 39, N-(3,5-dimethyl-4-((2′-oxospiro[cyclopropane-1,3′-indolin]-5′-yl)oxy)phenyl)-5-oxo-4,5-dihydro-1,2,4-oxadiazole-3-carboxamide]: under 50 nM; `O=C(Nc1cc(Cl)c(Oc2ccc3c(c2F)C2(CC2)C(=O)N3)c(Cl)c1)c1noc(=O)[nH]1` [Compound 40, N-(3,5-dichloro-4-((4′-fluoro-2′-oxospiro[cyclopropane-1,3′-indolin]-5′-yl)oxy)phenyl)-5-oxo-4,5-dihydro-1,2,4-oxadiazole-3-carboxamide]: under 50 nM. Next, `Nc1nn(-c2cc(Cl)c(Oc3ccc4c(c3F)C3(CC3)C(=O)N4)c(Cl)c2)c(=O)[nH]c1=O` [Compound 41, 6-amino-2-(3,5-dichloro-4-((4′-fluoro-2′-oxospiro[cyclopropane-1,3′-indolin]-5′-yl)oxy)phenyl)-1,2,4-triazine-3,5(2H,4H)-dione]: under 50 nM. Next, `Cn1nc(-c2cc(Cl)c(Oc3ccc4c(c3F)C3(CC3)C(=O)N4)c(Cl)c2)c(=O)[nH]c1=O` [Compound 42, 6-(3,5-dichloro-4-((4′-fluoro-2′-oxospiro[cyclopropane-1,3′-indolin]-5′-yl)oxy)phenyl)-2-methyl-1,2,4-triazine-3,5(2H,4H)-dione]: under 50 nM; `Cn1nc(-c2cc(Cl)c(Oc3ccc4c(c3Cl)C3(CC3)C(=O)N4)c(Cl)c2)c(=O)[nH]c1=O` [Compound 43, 6-(3,5-dichloro-4-((4′-chloro-2′-oxospiro[cyclopropane-1,3′-indolin]-5′-yl)oxy)phenyl)-2-methyl-1,2,4-triazine-3,5(2H,4H)-dione]: under 50 nM; `O=C(Nc1cc(Cl)c(Oc2ccc3c(c2)C2(CC2)C(=O)N3)c(C(F)(F)F)c1)c1noc(=O)[nH]1` [Compound 44, N-(3-chloro-4-((2′-oxospiro[cyclopropane-1,3′-indolin]-5′-yl)oxy)-5-(trifluoromethyl)phenyl)-5-oxo-4,5-dihydro-1,2,4-oxadiazole-3-carboxamide]: under 50 nM. As for `Nc1nn(-c2cc(Cl)c(Oc3cnc4c(c3)C3(CC3)C(=O)N4)c(Cl)c2)c(=O)[nH]c1=O` [Compound 45, 6-amino-2-(3,5-dichloro-4-((2′-oxo-1′,2′-dihydrospiro[cyclopropane-1,3′-pyrrolo[2,3-b]pyridin]-5′-yl)oxy)phenyl)-1,2,4-triazine-3,5(2H,4H)-dione], the EC50 is 250 to 1000 nM.
